Where “and” joins values, the source holds several entries; their conditions need not be identical. Equal entries are not always repeated.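 Dose response: 5 concentrations. Exposure: 48 h. Format: 96-well plates. Endpoint: linear interpolation; highest concentration if not reached. GI50 is the concentration that inhibits growth by half. Definition used: TGI = concentration required for complete inhibition of growth.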
How the values were obtained:
Assay in all cases: DTP human tumour cell line panel, 48 h
CCRF-CEM leukemia = system: CCRF-CEM leukemia
HCT-116 colon = system: HCT-116 colon
HOP-62 NSCLC = system: HOP-62 NSCLC
HOP-18 NSCLC = system: HOP-18 NSCLC
DMS 114 small cell lung = system: DMS 114 small cell lung
SK-OV-3 ovarian = system: SK-OV-3 ovarian
786-0 renal = system: 786-0 renal
TK-10 renal = system: TK-10 renal
MDA-MB-435 = system: MDA-MB-435
T-47D breast = system: T-47D breast

Compound	GI50 (CCRF-CEM leukemia) [µM]	TGI (CCRF-CEM leukemia)	TGI (HCT-116 colon)	TGI (HOP-62 NSCLC)	TGI (HOP-18 NSCLC) [µM]	TGI (DMS 114 small cell lung) [µM]	TGI (SK-OV-3 ovarian) [µM]	TGI (786-0 renal)	TGI (TK-10 renal)	TGI (MDA-MB-435)	TGI (T-47D breast)	GI50 (HOP-62 NSCLC) [µM]	GI50 (SK-OV-3 ovarian)	GI50 (786-0 renal)	GI50 (TK-10 renal)	GI50 (MDA-MB-435)	GI50 (T-47D breast) [µM]
ClC(Cl)=C1C(=C(Cl)Cl)C(Cl)(Cl)C1(Cl)Cl	0.334	1.5 µM	3.73 µM	22.1 µM	19.4	2.33	28.8	2.81 µM	11 µM	14 µM	23.6 µM						
CN(C)C(=S)SSC(=S)N(C)C		37.2 µM and 5.68 µM	28.9 µM and 30.4 µM and > 55.9 µM	34.8 µM and > 100 µM	> 100	17.4	> 100	33.4 µM and > 80.9 µM and 36.5 µM	30.6 µM and > 100 µM and > 70.6 µM	38.6 µM and 33.5 µM and > 56.7 µM	41.7 µM and 39 µM and 88.2 µM	18	37.1 µM and > 100 µM and 31.9 µM	18.2 µM and 35.2 µM and 17.3 µM	16.1 µM and > 100 µM and 26.4 µM	15.6 µM and 8.04 µM and 21.1 µM	15.9
NC(=O)C(=O)CC(=O)c1ccccc1NC1=CC(=O)C(=O)c2ccccc21		> 100 µM	> 100 µM	> 100 µM	> 100	68.2	> 100	> 100 µM	> 100 µM								
Nc1nc(-c2ccc(Cl)c([N+](=O)[O-])c2)cs1		> 100 µM	> 100 µM	> 100 µM	> 100	> 100	> 100	> 100 µM	> 100 µM								
Nc1ccccc1C(=O)/C=C/c1c(O)ccc2ccccc12		> 100 µM	> 100 µM	> 100 µM	> 100	> 100	> 100	> 100 µM	> 100 µM								
O=[N+]([O-])c1cccc(C2=NOC(C3CCCCC3)C2)c1 (configuration not stated)		> 100 µM	> 100 µM	> 100 µM	> 100	> 100	> 100	> 100 µM	> 100 µM								
Cc1ccc(C)c(N2C/C(=N\NC(=O)CC#N)C(c3nc4ccccc4s3)C(=O)C2=O)c1 (configuration not stated)		> 100 µM	> 100 µM	> 100 µM	> 100	> 100	> 100	> 100 µM	> 100 µM								
